In US9796984B2, “Protection against herbivores” (priority 2004, dated 2017):
Where two headings read alike, the source gives them in different places. One block for each compound: values may come before it.

Legend:
LeARG2 [1] = assay: Effect of various compounds on arginase activity, LeARG2; type: biochemical, Lycopersicon esculentum (tomato)
Procedure: (§1) Homogenates were centrifuged at 20,000×g for 10 min at 4° C., and the supernatants were used as the enzyme source. Recombinant LeARG enzyme was prepared as described above. Protein concentrations were determined as described above. Arginase activity was measured with a spectrophotometric assay for detection of urea (Alabadi et al., Plant Physiol. 112:1237-1244 (1996)), with minor modifications. The enzyme solution was activated with 1 mM MnCl2 at 37° C. for 60 min. […] Reactions were carried out at 37° C. for 20 min and stopped by the addition of 500 μl of 15% (v/v) perchloric acid. A 200-μl aliquot was mixed vigorously with 3 ml of acid mixture [9% (v/v) of phosphoric acid and 27% (v/v) of sulfuric acid] and 100 μl of 3% (w/v) α-isonitrosopropiophenone (Sigma) in 95% ethanol. This mixture was heated in a boiling water bath in the dark for 60 min and cooled for 10 min to room temperature. The OD540 was recorded on a Uvikon 933 spectrophotometer (Research Instruments, San Diego, Calif.). Substrate specificity tests were performed as described above with the exception that agmatine and other related compounds were added in place of L-arginine, to a final concentration of 250 mM. Substrates tested were obtained from Sigma. […] Inhibitor studies were conducted with test compounds that were dissolved in water and then diluted into the assay buffer at various concentrations prior to addition of enzyme. For example, 1 μl of a 5-mM L-NOHA stock was added to 489 μl of assay buffer, followed by addition of 10 μl of enzyme solution. The reaction was carried out as described above. L-NOHA was obtained from Cayman Chemical (Ann Arbor, Mich.). [table]

LeARG1 [2] = assay: Effect of various compounds on arginase activity, LeARG1; type: biochemical, Lycopersicon esculentum (tomato)
Procedure: as §1

Bovine arginase = biological target: T1, Bovine arginase (Bos taurus, UniProt Q2KJ64); assay: Substrate specificity (urea detection), bovine arginase; type: biochemical; conditions: 250 mM substrate; for Activity: 50 mM CHES pH 9.6, 2 mM MnCl2, 37° C., 30 min, mean and SD of triplet reactions; for activity relative to that obtained with L-arginine: pH 9.6
T1 sequence (Q2KJ64 1-322): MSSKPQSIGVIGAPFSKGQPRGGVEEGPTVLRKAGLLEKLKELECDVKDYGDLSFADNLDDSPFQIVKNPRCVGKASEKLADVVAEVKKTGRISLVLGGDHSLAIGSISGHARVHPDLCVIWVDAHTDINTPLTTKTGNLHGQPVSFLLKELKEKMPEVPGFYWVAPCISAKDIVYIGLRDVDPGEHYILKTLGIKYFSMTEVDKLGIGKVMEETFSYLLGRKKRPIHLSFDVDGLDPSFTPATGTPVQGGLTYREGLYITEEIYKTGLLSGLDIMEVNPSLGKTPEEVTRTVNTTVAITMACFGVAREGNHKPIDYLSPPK

LeARG2 [3] = assay: Substrate specificity of tomato arginases (urea detection), recombinant LeARG2; type: biochemical, Lycopersicon esculentum (tomato); conditions: 250 mM substrate; for Activity: 50 mM CHES pH 9.6, 2 mM MnCl2, 37° C., 30 min, mean and SD of triplet reactions; for activity relative to that obtained with L-arginine: pH 9.6
LeARG1 [4] = assay: Substrate specificity of tomato arginases (urea detection), recombinant LeARG1; type: biochemical, Lycopersicon esculentum (tomato); conditions: 250 mM substrate; for Activity: 50 mM CHES pH 9.6, 2 mM MnCl2, 37° C., 30 min, mean and SD of triplet reactions; for activity relative to that obtained with L-arginine: pH 9.6
LeARG2 [5] = assay: RNA blot analysis of LeARG2 transcripts in treated tomato leaves; design: species or system Lycopersicon esculentum (tomato); conditions: in vivo
LeARG1 [6] = assay: RNA blot analysis of LeARG1 transcripts in treated tomato leaves; design: species or system Lycopersicon esculentum (tomato); conditions: in vivo
threonine deaminase (TD) [7] = biological target: T2, threonine deaminase (TD) (Solanum lycopersicum, UniProt P25306); type: biochemical; conditions: midgut extracts of larvae grown on WT plants; Ile up to mM
T2 construct: from tissue; host or cells: desalted crude extracts of methyl-JA-treated tomato leaves, and of midgut content of M. sexta larvae reared on WT tomato
T2 sequence (P25306 52-418): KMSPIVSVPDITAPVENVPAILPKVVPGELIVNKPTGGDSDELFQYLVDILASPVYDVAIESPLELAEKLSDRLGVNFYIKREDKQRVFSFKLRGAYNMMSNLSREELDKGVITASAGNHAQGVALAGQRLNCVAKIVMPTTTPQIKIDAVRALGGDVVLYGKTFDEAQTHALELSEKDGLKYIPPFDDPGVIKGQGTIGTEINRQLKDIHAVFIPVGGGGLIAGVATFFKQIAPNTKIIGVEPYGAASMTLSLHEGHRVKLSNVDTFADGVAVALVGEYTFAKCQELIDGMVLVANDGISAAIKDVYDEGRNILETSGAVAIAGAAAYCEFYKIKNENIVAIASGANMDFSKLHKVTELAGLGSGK

threonine deaminase (TD) [8] = type: biochemical; conditions: extracts of methyl-JA-treated tomato leaves
tomato arginase = assay: Inhibition of tomato arginase by NOHA; type: biochemical, Lycopersicon esculentum (tomato)
Procedure: as §1, with “Mich.).” for “Mich.). [table]”

arginase activity = assay: L-arginase activity in tomato leaf protein extracts; type: biochemical, Lycopersicon esculentum (tomato); conditions: exogenous MeJA vapor
[9] = compound 5.0 mM, 25 mM L-arginine, % of control reaction
[10] = compound 0.2 mM, 25 mM L-arginine, % of control reaction

Compound: OCCS [2-Mercaptoethanol]
- Relative activity (%) (LeARG2 [1]): 80%
- Relative activity (%) (LeARG1 [2]): 81%

- Relative activity (%) (LeARG2 [1]; [9]): 38%
- Relative activity (%) (LeARG1 [2]; [9]): 38%
Compound: CC(S)C(=O)O (centres unmarked) [2-Mercaptopropionate]

Compound: O=C(O)CCS [3 -Mercaptopropionate]
- Relative activity (%) (LeARG2 [1]; [9]): 26%
- Relative activity (%) (LeARG1 [2]; [9]): 24%

Compound: N=C(N)NCCCCN [Agmatine]
- Activity (Bovine arginase): 12 ± 2 μmol/mg protein/h
- activity relative to that obtained with L-arginine (Bovine arginase): (0.2%)
- Activity (LeARG2 [3]): 41 ± 6 μmol/mg protein/h
- activity relative to that obtained with L-arginine (LeARG2 [3]): (0.6%)
- Activity (LeARG1 [4]): 40 ± 3 μmol/mg protein/h
- activity relative to that obtained with L-arginine (LeARG1 [4]): (0.5%)

Compound: CC[C@H]1C=C(C(=O)N[C@@]2(C(=O)O)C[C@@H]2CC)[C@H]2CCC(=O)[C@H]2C1 [COR, coronatine]
- LeARG2 expression in leaves (LeARG2 [5]): necessary and sufficient
- LeARG1 expression in leaves (LeARG1 [6]): not induced

Compound: N=C(N)NOCC[C@H](N)C(=O)O [Canavanine]
- Activity (Bovine arginase): 14 ± 2 μmol/mg protein/h
- activity relative to that obtained with L-arginine (Bovine arginase): (0.2%)
- Activity (LeARG2 [3]): 9 ± 1 μmol/mg protein/h
- activity relative to that obtained with L-arginine (LeARG2 [3]): (0.1%)
- Activity (LeARG1 [4]): 3 ± 1 μmol/mg protein/h
- activity relative to that obtained with L-arginine (LeARG1 [4]): (<0.1%)

Compound: N=C(N)NCCC[C@@H](N)C(=O)O [D-Arginine]
- Activity (Bovine arginase): 32 ± 13 μmol/mg protein/h
- activity relative to that obtained with L-arginine (Bovine arginase): (0.5%)
- Activity (LeARG2 [3]): 250 ± 5 μmol/mg protein/h
- activity relative to that obtained with L-arginine (LeARG2 [3]): (3.6%)
- Activity (LeARG1 [4]): 195 ± 2 μmol/mg protein/h
- activity relative to that obtained with L-arginine (LeARG1 [4]): (2.2%)

Compound: N=C(N)NCCCC[C@H](N)C(=O)O [Homoarginine]
- Activity (LeARG2 [3]): 916 ± 16 μmol/mg protein/h
- activity relative to that obtained with L-arginine (LeARG2 [3]): (13%)
- Activity (LeARG1 [4]): 1269 ± 2 μmol/mg protein/h
- activity relative to that obtained with L-arginine (LeARG1 [4]): (14%)

Compound: CC[C@H](C)[C@H](N)C(=O)O [Ile, isoleucine]
- TD activity in the presence of Ile (threonine deaminase (TD) [7]): not significantly inhibited
- TD activity in the presence of Ile (threonine deaminase (TD) [8]): strongly inhibited

- Relative activity (%) (LeARG2 [1]; [9]): 88%
- Relative activity (%) (LeARG1 [2]; [9]): 72%
Compound: NCCC[C@H](N)C(=O)O [L- Ornithine]

Compound: N=C(N)NCCC[C@H](N)C(=O)O [L-Arginine]
- Activity (Bovine arginase): 6608 ± 351 μmol/mg protein/h
- activity relative to that obtained with L-arginine (Bovine arginase): (100%)
- Activity (LeARG2 [3]): 7016 ± 86 μmol/mg protein/h
- activity relative to that obtained with L-arginine (LeARG2 [3]): (100%)
- Activity (LeARG1 [4]): 8848 ± 177 μmol/mg protein/h
- activity relative to that obtained with L-arginine (LeARG1 [4]): (100%)

- Relative activity (%) (LeARG2 [1]; [10]): 5%
- Ki lower than the Km for L-arginine (tomato arginase): more than 1000 fold
- mode of inhibition (tomato arginase; plant and non-plant arginases): competitive inhibitor
- Ki (tomato arginase; plant enzymes (LeARG1 and LeARG2)): ~14 µM
- Relative activity (%) (LeARG1 [2]; [10]): 7%
Compound: NC(=NCCC[C@H](N)C(=O)O)NO [L-NOHA, N^G-hydroxy-L-arginine]

- arginase activity in leaves after treatment (arginase activity): increase
Compound: CC/C=C\CC1C(=O)CCC1CC(=O)OC (centres unmarked) [MeJA]
- LeARG2 expression in leaves (LeARG2 [5]): strongly elicited
- LeARG1 expression in leaves (LeARG1 [6]): low level

Compound: O=C(O)CS [Mercaptoacetate]
- Relative activity (%) (LeARG2 [1]; [9]): 26%
- Relative activity (%) (LeARG1 [2]; [9]): 28%
